Consider 8 molecules from patent US20010034887A1, “Transformation of guar” (priority 1994, published 2001).

The assay deals with guar explants. As to the kind of experiment: Agrobacterium-mediated transformation of guar cotyledon explants: selection, shoot harvest and GUS test. The class given is cell-based, Cyamopsis tetragonoloba. On the procedure: Cotyledons with about 2 mm of hypocotyl were excised from 12 day old seedlings. The cotyledons were then torn apart using a tweezers to create wound surfaces and placed in the Agrobacterium-suspension for 30 min.
Co-cultivation proceeded for 3 days at 25° C. and a 12 h/12 h day/night regime. After co-culture the explants were washed with 1/10 MS-medium, to which 100 mg/l carbenicillin, 100 mg/l cefotaxime and 1000 mg/l lysozyme had been added, 2-3 times for 45 min. while stirring at 100 rpm.
The explants were transferred to selection medium and incubated as above (25° C., 12 h day/12 h night).
After 4 weeks, shoots larger than 3 mm were harvested and transferred to shoot medium. After 10-14 days the shoots were tested for activity of the reporter gene β-glucuronidase (GUS), see below. GUS-positive shoots were transferred to fresh shoot medium while the GUS-negative shoots were discarded.
After the first harvest, explants (from which shoots had been harvested) were transferred to a second selection medium with a lower kanamycin concentration (50 mg/l) . After another 4 weeks shoots were harvested and GUS-tested. The positive shoots were transferred to fresh medium, while the negatives were discarded.
Tips of young leaves were excised and transferred to a multi-dish well containing 200 μl X-gluc solution. After incubation for 16 h at 35° C. the leaf tips were destained with 96% ethanol and the degree of blue stain was determined under a microscope.

The mark [1] stands for this setting: kanamycin sulfate 125 mg/l in selection medium, 1600 explants, strain EHA 101.
[2] abbreviates: kanamycin sulfate 135 mg/l in selection medium, 1600 explants, strain EHA 101.
Where [3] appears, read: kanamycin sulfate 145 mg/l in selection medium, 1600 explants, strain EHA 101.
The mark [4] stands for this setting: thidiazuron 0.3 mg/l, 742 explants.
The mark [5] stands for this setting: thidiazuron 1.0 mg/l, 741 explants.
The mark [6] stands for this setting: thidiazuron 3.0 mg/l, 1522 explants.
The mark [7] stands for this setting: thidiazuron 4.5 mg/l, 797 explants.
[8] abbreviates: 0.1-2 mg/l PCIB during selection.

Counter-ions that a name gives are not always drawn.

As to `CC1(C)S[C@@H]2[C@H](NC(=O)C(C(=O)O)c3ccccc3)C(=O)N2[C@H]1C(=O)O` (some centres unmarked) [Carbenicil., carbenicillin], for the setting “carbenicillin 800 mg/l, cefotaxime 0, sulbactam 0, 800 explants, EHA 101”, the “No. of GUS+ shoots” value is given as 2.
Regarding benzyladenine purine [BAP], for the setting “5 mg/l vs 1 mg/l BAP in selection medium”, the “total number of regenerated shoots on 5 mg/l BAP compared with 1 mg/l” value is “about twice as high”. Besides, the “No. of GUS+ shoots” value by setting is: (BAP 1.0 mg/l, NiCl2, 6H2O 0 mg/l, 1200 explants, EHA 101) 1; (BAP 5.0 mg/l, NiCl2, 6H2O 0 mg/l, 1200 explants, EHA 101) 2.
On to `NC[C@H]1O[C@H](O[C@H]2[C@H](O)[C@@H](O[C@H]3O[C@H](CO)[C@@H](O)[C@H](N)[C@H]3O)[C@H](N)C[C@@H]2N)[C@H](O)[C@@H](O)[C@@H]1O` [Kanamycin sulf., kanamycin sulfate], for which the regeneration frequencies (100 mg/l kanamycin or less) is reported as roughly 100%. For the same molecule, the “No. of GUS+ shoots” value is 3 under setting [1], 5 under setting [2] and 8 under setting [3]. Besides, the “No. of regenerated shoots” value came to 21 under setting [1], 19 under setting [2] and 15 under setting [3]. The “transgenic shoots found at the second harvest” value (second harvest, kanamycin concentration reduced) was “About 50%”. Besides, the “optimal kanamycin sulfate concentration in the selection medium” value (selection medium) stood at 145 mg/L.
Take `O=C(Nc1ccccc1)Nc1cnns1` [Thidiazuron, thidiazuron]: the “subsequent cloning of the transgenic shoots” value is “beneficial for the subsequent cloning of the transgenic shoots”. Moreover, the “increase of transformation frequencies” value (TDZ 0.3-3.0 mg/l vs no TDZ) is 1.5-1.8 fold. The “optimum TDZ concentrations in the selection media” value (selection media) is 0.3 to 3.0 mg/L. Moreover, under setting [4], the “No. of GUS+ shoots” value was found to be 8 and the “Transform. freq. (%)” value came out at 1.08%. Also, under setting [5], the “No. of GUS+ shoots” value stood at 9 and the “Transform. freq. (%)” value came out at 1.21%. Also, under setting [6], the “No. of GUS+ shoots” value is 16 and the “Transform. freq. (%)” value amounted to 1.05%. Under setting [7], the “No. of GUS+ shoots” value is listed as 5 and the “Transform. freq. (%)” value was determined as 0.63%.
Consider `CC1(C)[C@H](C(=O)O)N2C(=O)C[C@H]2S1(=O)=O` [Sulbactam, sulbactam], for which the “No. of GUS+ shoots” value (sulbactam 100 mg/l with carbenicillin 50 mg/l and cefotaxime 50 mg/l, 800 explants, EHA 101) is reported as 9; the “No. of GUS+ shoots” value (sulbactam 100 mg/l with carbenicillin 100 mg/l and cefotaxime 100 mg/l, 800 explants, EHA 101) turned out to be 5.
As to silver thiosulfate [STS], the “No. of GUS+ shoots” value was 12 (STS 2.5 μM, calculated per 1000 explants, EHA 101); 8 (STS 5.0 μM, calculated per 1000 explants, EHA 101); 7 (STS 10.0 μM, calculated per 1000 explants, EHA 101). The shoot quality result (presence of STS vs absence) was “significantly improved shoot quality”.
For the molecule `CC(C)(Oc1ccc(Cl)cc1)C(=O)O` [PCIB, 2-(p-chlorophenoxy)-2-methylpropionic acid], under setting [8], the amount of callus is listed as “reduced the amount of callus significantly”; the “regeneration and number of transgenic shoots” value is “enhanced regeneration and the number of transgenic shoots”.
On to `O.O.O.O.O.O.[Cl][Ni][Cl]` [NiCl2, 6H2O], for which the “No. of GUS+ shoots” value runs as follows: (NiCl2, 6H2O 1.0 mg/l with BAP 1.0 mg/l, 1200 explants, EHA 101) 4; (NiCl2, 6H2O 1.0 mg/l with BAP 5.0 mg/l, 1200 explants, EHA 101) 4. In addition, the higher transformation frequency (addition of 1 mg/l NiCl2, 6H2O) is on record as 2-4 times.
